From patent US7795456B2, “Insecticidal N-substituted sulfoximines” (Dow AgroSciences LLC, priority 2004, dated 2010)

Columns and labels:
[1] = test system: yellow fever mosquito (Aedes aegypti) larvae; assay: whole plant or invertebrate; type: in vivo; details: 72 h, read-out: YFM 26: % control at 26 ppm against yellow fever mosquito in submerge tests
[2] = test system: Colorado potato beetle (Leptinotarsa decemlineata); assay: Insecticidal test for Colorado potato beetle, foliar spray on tomato; type: in vivo
Protocol: Insecticidal Test for Colorado Potato Beetle (Leptinotarsa decemlineata).
Tomato seedlings at the growth stage of three or four expanding leaves were used. […] Treated plants were held in the laboratory for approximately 3 h to allow drying before the upper portion (with two or three leaves) of a plant was cut and placed in a 10×2.5-cm petri dish containing approximately 10 mL of solidified 1% agar at the bottom. Five 2nd or 3rd instar larvae were placed on the treated plant tissue, and the petri dishes were covered and held in an incubator at 25° C. At 5 days following treatment, insecticidal activity was evaluated by counting the number of live larvae in each dish.

[3] = test system: corn earworm (Helicoverpa zea); details: 50 μg/cm2, second-instar larvae, 5 days
[4] = test system: beet armyworm (Spodoptera exigua); details: 50 μg/cm2, second-instar larvae, 5 days
[5] = test system: fruit fly (Drosophila melanogaster)
[6] = test system: beet armyworm (Spodoptera exigua); assay: Insecticidal test for beet armyworm in injection assays; details: 1 h, read-out: BAW SYM: % showing intoxicated symptoms at 10 μg/larva against beet armyworm in injection tests
[7] = test system: cotton aphid (Aphis gossypii); assay: Insecticidal test for cotton aphid, foliar spray on squash
[8] = test system: sweet potato whitefly (Bemisia tabaci); assay: Insecticidal test for sweet potato whitefly, foliar spray on cotton
[9] = test system: green peach aphid (Myzus persicae); assay: Insecticidal test for green peach aphid, foliar spray on cabbage seedlings; details: rundown assay, 3 days

N#CN=[S@@]1(=O)CCCC1Cc1ccc(Cl)nc1 (stereo partly drawn) [Compound 20]
F (Less than 50): % Control at ppm, against Colorado potato beetle: 0.78 ([2]; 0.78 ppm, rundown assay) | % Control at ppm, against Colorado potato beetle: 3.13 ([2]; 3.13 ppm, rundown assay) | FF SYM: % showing intoxicated symptoms at 25 μg/cm2 against fruit fly in dietary tests ([5]; 25 μg/cm2, 4 h) | FF 25: % mortality at 25 μg/cm2 against fruit fly in dietary tests ([5]; 25 μg/cm2, 48 h) | % Control at ppm, against sweet potato whitefly: 0.4-0.78 ([8]; 0.4-0.78 ppm, rundown assay) | % Control at ppm, against sweet potato whitefly: 2-3.13 ([8]; 2-3.13 ppm, rundown assay) | % Control at ppm, against green peach aphid: 0.049 ([9]; 0.049 ppm) | % Control at ppm, against green peach aphid: 0.195 ([9]; 0.195 ppm) | % Control at ppm, against green peach aphid: 0.78 ([9]; 0.78 ppm) | % Control at ppm, against green peach aphid: 3.12 ([9]; 3.12 ppm)
80 to 89%: pest or weed control at 0.01 mg [6]
A (90-100): % Control at ppm, against Colorado potato beetle: 12.5 ([2]; 12.5 ppm, rundown assay) | CPB 50: % control at 50 ppm against Colorado potato beetle in foliar spray tests ([2]; 50 ppm, foliar spray, 5 days, Corrected % Control) | % Control at ppm, against Colorado potato beetle: 50 ([2]; 50 ppm, rundown assay) | % Control at ppm, against cotton aphid: 0.195 ([7]; 0.195 ppm, rundown assay) | % Control at ppm, against cotton aphid: 0.78 ([7]; 0.78 ppm, rundown assay) | % Control at ppm, against cotton aphid: 3.12 ([7]; 3.12 ppm, rundown assay) | % Control at ppm, against cotton aphid: 12.5 ([7]; 12.5 ppm, rundown assay) | % Control at ppm, against cotton aphid: 50 ([7]; 50 ppm, rundown assay) | % Control at ppm, against sweet potato whitefly: 10-12.5 ([8]; 10-12.5 ppm, rundown assay) | % Control at ppm, against sweet potato whitefly: 50 ([8]; 50 ppm, rundown assay) | % Control at ppm, against green peach aphid: 12.5 ([9]; 12.5 ppm) | % Control at ppm, against green peach aphid: 50 ([9]; 50 ppm)
G (Inactive): CEW 50: % mortality at 50 μg/cm2 against corn earworm in dietary tests [3] | BAW 50: % mortality at 50 μg/cm2 against beet armyworm in dietary tests [4]
90 to 100%: pest or weed control at 26 ppm [1] | pest or weed control at 50 ppm ([7]; Aphis gossypii, foliar, 72 h, read-out: CA 50: % control at 50 ppm against cotton aphid in foliar spray tests) | pest or weed control at 200 ppm ([7]; Aphis gossypii, foliar, 72 h, read-out: CA 200: % control at 200 ppm against cotton aphid in foliar spray tests) | pest or weed control at 200 ppm ([8]; Bemisia tabaci, in Gossypium hirsutum, foliar, read-out: SPW 200: % control at 200 ppm against sweet potato whitefly in foliar spray tests)
B (80-89): % Control at ppm, against cotton aphid: 0.049 ([7]; 0.049 ppm, rundown assay)
